Test results: patent publication US20230416329A1, “A PEPTIDE WITH DISULFIDE BONDS AND INHIBITORY ACTIVITY AGAINST SERINE PROTEASES, DERIVED HYBRID PEPTIDES THEREOF, AND USES THEREOF” (INSTITUTE OF MATERIA MEDICA , CHINESE ACADEMY OF MEDICAL …, priority 2020, published 2023)
Bridge positions count the residues as written; N and C are the ends. Peptide text beside a SMILES is read from it.

Target: α-chymotrypsin (Bos taurus, UniProt P00766)
Assay: Chymotrypsin inhibitory activity of peptides (AAPFpNA hydrolysis; IC50, Ki, residual activity)
Type: biochemical
Details: for IC50: chymotrypsin 30 nM, AAPFpNA 0.5 mM; for Ki: Ki=IC50/(1+S/Km), Km 0.38 mM
Description: The inhibition constants of various synthetic active peptide inhibitors (molecular scaffolds) against seine proteases were measured. The substrates N-succinyl-Ala-Ala-Pro-Phe-p-nitroaniline (AAPFpNA), Nα—Benzoyl-L-arginine-4-nitroaniline hydrochloride (BApNA) and N-succinyl-[…] (AAApNA) are used in competitive binding reaction to determine the inhibitory activities against α-chymotrypsin, bovine trypsin, and porcine pancreatic elastase, respectively. Experiments for α-chymotrypsin and bovine trypsin inhibition were measured in 20 mM CaCl2, 50 mM Tris-HCl buffer (pH 7.8), and that for porcine elastase inhibition was measured in 50 mM Tris-HCl buffer (pH 8.0). The concentration of the peptide was measured using optical density (OD) at 280 nm. The Michaelis constant (Km) of the enzyme hydrolysis substrate is calculated from the initial rate of substrate hydrolysis at 405 nm. The absorbance value of the substrate was measured at 405 nm after complete hydrolysis. All data were processed using nonlinear regression.
• (1) Added a total 190 μL of reaction buffer (20 mM CaCl2, 50 mM Tris-HCl (pH 7.8)) into the 96 well plate, followed by preheating at 37° C. for 15 min. Then added 2 μL of different concentrations of substrates (p-Nitroanilide, pNA, 0.5% in DMSO), and mixed by centrifugation at 500 rpm for 1 min. Finally, the plate was incubated at 37° C. for 20 min, and the absorbance value at 405 nm was measured. In the 200 μL of reaction system, the final concentrations of pNA were 0, 0.025, 0.05, 0.075, 0.1, 0.125, 0.15, 0.25, and 0.3 mM, respectively. Make three repetitions for each concentration and plot the OD405 m value with pNA concentration to obtain the standard curve. • (2) Added a total 190 μL of reaction buffer (20 mM CaCl2, 50 mM Tris-HCl (pH 7.8)) and 8 μL of 0.75 μM chymotrypsin into the 96 well plate, followed by preheating at 37° C. for 5 min. Then added 2 μL of different concentrations of substrates (AAPFpNA, dissolved in DMSO), and mixed by centrifugation at 500 rpm for 1 min. Finally, the plate was incubated at 37° C. for 20 min, and the absorbance value at 405 nm was measured. In the 200 μL of reaction system, the final concentrations of AAPFpNA were 0, 0.125, 0.25, 0.285, 0.33, 0.4, and 0.5 mM, respectively. Make three repetitions for each concentration and plot the OD405 nm value with time to obtain the corresponding curve. Divide the slope of the curve by the slope of the standard curve and the enzyme concentration to obtain the initial velocity V0 (mM/(min*mM protein). Plot the initial velocity V0 with the concentration of substrate AAPFpNA using Prism software, and the Michaelis constant Km value of chymotrypsin hydrolyzing AAPFpNA was obtained.
• (1) Added a total 190 μL of reaction buffer (20 mM CaCl2, 50 mM Tris-HCl (pH 7.8)), different concentrations of anti-chymorypsin peptides (CHs) into the pre-cold 96 well plate, followed by preheating at 37° C. for 5 min and centrifugated at 500 rpm for 1 min and allowed to stand for 4 minutes. Then added 8 μL of 750 nM chymotrypsin and incubated at 37° C. for 10 min, and centrifugated at 500 rpm for 1 min and allowed to stand for 9 minutes. Finally, added 2 μL of 50 mM AAPFpNA, and mixed by centrifugation at 500 rpm for 1 min. The plate was incubated at 37° C. for 90 min, and the absorbance value at 405 nm was measured. Three repetitions were made, and only reaction buffer and substrate were added in the blank control as the minimum absorption value (Min OD405 nm); Only reaction buffer, enzyme and substrate were added in the negative control as the maximum absorption value (Max OD405). • (2) In the 200 μL of reaction system, the final concentrations of chymotrypsin and AAPFpNA were 30 nM and 0.5 mM, respectively. • (3) Data statistics
Residual activity of enzyme (%)=(1−(Max OD405 nm−Sample OD405 nm)/(Max OD405 nm−Min OD405 nm))*100 […]

SMILES | IC50 | inhibitory activity against chymotrypsin (in words) | Ki
CC[C@H](C)[C@@H]1NC(=O)[C@H](CO)NC(=O)[C@H](Cc2ccc(O)cc2)NC(=O)[C@H]([C@@H](C)O)NC(=O)[C@H](C)NC(=O)[C@H](CO)NC(=O)[C@@H](N)CSSC[C@@H](C(=O)N[C@@H](Cc2ccc(O)cc2)C(=O)O)NC(=O)[C@H](CCC(N)=O)NC(=O)[C@@H]2CCCN2C(=O)[C@@H]2CCCN2C1=O [CH8] (H-CSATYSIPPQCY-OH; disulfide 1-11; N-terminus and C-terminus assumed) | > 50 µM |  | 
CC[C@H](C)[C@@H]1NC(=O)[C@H](CO)NC(=O)[C@H](Cc2ccc(O)cc2)NC(=O)[C@H]([C@@H](C)O)NC(=O)[C@H](C)NC(=O)[C@H](CO)NC(=O)CNC(=O)[C@@H](N)CSSC[C@@H](C(=O)N[C@@H](Cc2ccc(O)cc2)C(=O)O)NC(=O)[C@H](CCC(N)=O)NC(=O)[C@@H]2CCCN2C(=O)[C@@H]2CCCN2C1=O [CH9] (H-CGSATYSIPPQCY-OH; disulfide 1-12; N-terminus and C-terminus assumed) | 28.4 µM | certain inhibitory activity against chymotrypsin | 12.3 µM
CC[C@H](C)[C@@H]1NC(=O)[C@H](CO)NC(=O)[C@H](Cc2ccc(O)cc2)NC(=O)[C@H]([C@@H](C)O)NC(=O)[C@H](C)NC(=O)[C@H](CO)NC(=O)[C@@H](N)CSSC[C@@H](C(=O)N[C@@H](Cc2ccc(O)cc2)C(=O)NCC(=O)O)NC(=O)[C@H](CCC(N)=O)NC(=O)[C@@H]2CCCN2C(=O)[C@@H]2CCCN2C1=O [CH16] (H-CSATYSIPPQCYG-OH; disulfide 1-11; N-terminus and C-terminus assumed) | > 50 µM |  | 
CC[C@H](C)[C@@H]1NC(=O)[C@H](CO)NC(=O)[C@H](CC(C)C)NC(=O)[C@H]([C@@H](C)O)NC(=O)[C@@H](NC(=O)[C@@H](N)Cc2ccccc2)CSSC[C@@H](C(=O)N[C@@H](Cc2ccc(O)cc2)C(=O)NCC(=O)O)NC(=O)[C@H](CCC(N)=O)NC(=O)[C@@H]2CCCN2C(=O)[C@@H]2CCCN2C1=O [CH19] (H-FCTLSIPPQCYG-OH; disulfide 2-10; N-terminus and C-terminus assumed) | 11.3 µM |  | 4.87 µM
CC[C@H](C)[C@@H]1NC(=O)[C@@H]2CCCN2C(=O)[C@@H]2CCCN2C(=O)[C@H]([C@@H](C)CC)NC(=O)[C@H](CO)NC(=O)[C@H](Cc2ccc(O)cc2)NC(=O)[C@H](CC(C)C)NC(=O)[C@@H](NC(=O)[C@H](CCCCN)NC(=O)CN)CSSC[C@@H](C(=O)N[C@@H](Cc2ccccc2)C(=O)N2CCC[C@H]2C(=O)N[C@@H](CC(N)=O)C(=O)O)NC1=O [CH20] (H-GKCLYSIPPICFPN-OH; disulfide 3-11; N-terminus and C-terminus assumed) | 16.4 µM |  | 7.1 µM
CC[C@H](C)[C@@H]1NC(=O)[C@H](CO)NC(=O)[C@H](Cc2ccc(O)cc2)NC(=O)[C@H]([C@@H](C)O)NC(=O)[C@H](C)NC(=O)[C@H](CC(N)=O)NC(=O)CNC(=O)[C@@H](N)CSSC[C@@H](C(=O)N[C@@H](Cc2ccc(O)cc2)C(=O)NCC(=O)O)NC(=O)[C@H](CCC(N)=O)NC(=O)[C@@H]2CCCN2C(=O)[C@@H]2CCCN2C1=O [CH21] (H-CGNATYSIPPQCYG-OH; disulfide 1-12; N-terminus and C-terminus assumed) | > 50 µM |  | 
CC[C@H](C)[C@@H]1NC(=O)[C@H](CO)NC(=O)[C@H](Cc2ccc(O)cc2)NC(=O)[C@H]([C@@H](C)O)NC(=O)[C@H](C)NC(=O)[C@H](CO)NC(=O)CNC(=O)[C@@H](N)CSSC[C@@H](C(=O)N[C@H](C(=O)NCC(=O)O)C(C)C)NC(=O)[C@H](CCC(N)=O)NC(=O)[C@H](C)NC(=O)[C@@H]2CCCN2C1=O [CH23] (H-CGSATYSIPAQCVG-OH; disulfide 1-12; N-terminus and C-terminus assumed) | 4.31 µM | good inhibitory activity | 1.86 µM
CC[C@H](C)[C@@H]1NC(=O)[C@@H]2CCCN2C(=O)[C@@H]2CCCN2C(=O)[C@H]([C@@H](C)CC)NC(=O)[C@H](CO)NC(=O)[C@H](Cc2ccccc2)NC(=O)[C@H]([C@@H](C)O)NC(=O)[C@@H](NC(=O)[C@@H](NC(=O)CN)[C@@H](C)O)CSSC[C@@H](C(=O)N[C@@H](CC(N)=O)C(=O)N2CCC[C@H]2C(=O)N[C@@H](CC(N)=O)C(=O)O)NC1=O [CH25] (H-GTCTFSIPPICNPN-OH; disulfide 3-11) | 0.28 µM |  | 0.12 µM

Continued, values first:

IC50 | inhibitory activity against chymotrypsin (in words) | Ki | SMILES
> 50 µM |  |  | CC[C@H](C)[C@@H]1NC(=O)[C@H](CO)NC(=O)[C@H](Cc2ccccc2)NC(=O)[C@H]([C@@H](C)O)NC(=O)[C@H](C)NC(=O)[C@H](Cc2ccccc2)NC(=O)CNC(=O)[C@@H](N)CSSC[C@@H](C(=O)N[C@@H](Cc2ccc(O)cc2)C(=O)NCC(=O)O)NC(=O)[C@H](CCC(N)=O)NC(=O)[C@@H]2CCCN2C(=O)[C@@H]2CCCN2C1=O [CH12] (H-CGFATFSIPPQCYG-OH; disulfide 1-12)
5.62 µM | good inhibitory activity | 2.43 µM | CC[C@H](C)[C@@H]1NC(=O)[C@H](CO)NC(=O)[C@H](Cc2ccccc2)NC(=O)[C@H]([C@@H](C)O)NC(=O)[C@H](C)NC(=O)[C@H](CO)NC(=O)CNC(=O)[C@@H](N)CSSC[C@@H](C(=O)N[C@@H](Cc2ccc(O)cc2)C(=O)NCC(=O)O)NC(=O)[C@H](CCC(N)=O)NC(=O)[C@@H]2CCCN2C(=O)[C@@H]2CCCN2C1=O [CH13] (H-CGSATFSIPPQCYG-OH; disulfide 1-12; N-terminus and C-terminus assumed)
> 50 µM |  |  | CC[C@H](C)[C@@H]1NC(=O)[C@H](CO)NC(=O)[C@H](Cc2ccc(O)cc2)NC(=O)[C@H]([C@@H](C)O)NC(=O)[C@H](C)NC(=O)[C@H](Cc2ccccc2)NC(=O)CNC(=O)[C@@H](N)CSSC[C@@H](C(=O)N[C@@H](Cc2ccc(O)cc2)C(=O)NCC(=O)O)NC(=O)[C@H](CCC(N)=O)NC(=O)[C@@H]2CCCN2C(=O)[C@@H]2CCCN2C1=O [CH14] (H-CGFATYSIPPQCYG-OH; disulfide 1-12)
4.6 µM |  | 1.99 µM | CC[C@H](C)[C@@H]1NC(=O)[C@H](CO)NC(=O)[C@H](Cc2ccc(O)cc2)NC(=O)[C@H]([C@@H](C)O)NC(=O)[C@H](C)NC(=O)[C@H](CO)NC(=O)CNC(=O)[C@@H](N)CSSC[C@@H](C(=O)N[C@@H](Cc2ccc(O)cc2)C(=O)NCC(=O)O)NC(=O)[C@H](CCC(N)=O)NC(=O)[C@@H]2CCCN2C(=O)[C@@H]2CCCN2C1=O [CH15] (H-CGSATYSIPPQCYG-OH; disulfide 1-12; N-terminus and C-terminus assumed)
> 50 µM |  |  | CC[C@H](C)[C@@H]1NC(=O)[C@H](CO)NC(=O)[C@H](Cc2ccc(O)cc2)NC(=O)[C@H]([C@@H](C)O)NC(=O)[C@H](C)NC(=O)[C@H]([C@@H](C)O)NC(=O)CNC(=O)[C@@H](N)CSSC[C@@H](C(=O)N[C@@H](Cc2ccc(O)cc2)C(=O)NCC(=O)O)NC(=O)[C@H](CCC(N)=O)NC(=O)[C@@H]2CCCN2C(=O)[C@@H]2CCCN2C1=O [CH22] (H-CGTATYSIPPQCYG-OH; disulfide 1-12; N-terminus and C-terminus assumed)
6.14 µM | good inhibitory activity | 2.65 µM | CC[C@H](C)[C@@H]1NC(=O)[C@H](CO)NC(=O)[C@H](Cc2ccc(O)cc2)NC(=O)[C@H]([C@@H](C)O)NC(=O)[C@H](C)NC(=O)[C@H](CO)NC(=O)CNC(=O)[C@@H](N)CSSC[C@@H](C(=O)N[C@@H](Cc2ccccc2)C(=O)NCC(=O)O)NC(=O)[C@H](CCCCN)NC(=O)[C@H](C)NC(=O)[C@@H]2CCCN2C1=O [CH24] (H-CGSATYSIPAKCFG-OH; disulfide 1-12; N-terminus and C-terminus assumed)
